Results published in PubChem BioAssay AID743179 (NMMLSC, 2013).
pEC50: −log10 of the molar value. Calls of active or inactive are those of the source.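 Rule for the calls: active = at least 15% of cells MAC1 differentiation marker positive at top dose, with half-maximal concentration under 10 µM; inactive = the rest.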

Test system: not listed separately
Assay: myeloid differentiation promoters in THP1 cells, SAR follow-up, cell-based, MAC1 flow cytometry, set 1 (AID 743179)
Settings: THP1 MAC1+ differentiation, flow cytometry, 4 days; at 10 µM (top of the series)

SMILES | MAC1+ percent, differentiation
CC(C)(C)OC(=O)NCCC(=O)N[C@H]1CCCc2ccccc21 | 2% (inactive)
O=C(CNC(=O)c1ccc(C(F)(F)F)cc1)N[C@@H]1CCCc2ccccc21 | 3% (inactive)
NCCC(=O)N[C@@H]1CCCc2ccccc21 | 1% (inactive)
CC(NC(=O)CCNC(=O)c1ccc(Cl)cc1)c1ccc2c(c1)OCO2 (stereo not given) | 5% (inactive)
O=C(CCNC(=O)c1ccc(Cl)cc1)NC1CCCCC1 | 3% (inactive)
O=C(CCNC(=O)c1ccc(Cl)cc1)N[C@H]1CCCc2ccccc21 | 7% (inactive)
N#Cc1ccc(C(=O)NCCC(=O)N[C@@H]2CCCc3ccccc32)cc1 | 17% (inactive)
O=C(CCCNC(=O)c1ccc(Cl)c(Cl)c1)N[C@@H]1CCCc2ccccc21 | 3% (inactive)
C[C@@H](NC(=O)CCNC(=O)c1ccc(Cl)cc1)c1ccccc1 | 5% (inactive)
O=C(CCNC(=O)c1ccc(Cl)cc1)N[C@@H]1CCc2ccccc21 | 21% (inactive)
CC(C)(C)OC(=O)NCCC(=O)N[C@@H]1CCCc2ccccc21 | 2% (inactive)
CC(NC(=O)C1CCCN(C(=O)c2ccc(Cl)cc2)C1)c1ccccc1 (stereo not given) | 6% (inactive)
O=C(NC1CCOc2ccccc21)C1CCCN(C(=O)c2ccc(Cl)cc2)C1 (stereo not given) | 5% (inactive)
O=C(CCNC(=O)c1ccc(Cl)c(Cl)c1)N[C@@H]1CCCc2ccccc21 | 109% (inactive)
O=C(CCNC(=O)c1ccc(F)cc1)N[C@@H]1CCCc2ccccc21 | 46% (inactive)
O=C(CCCNC(=O)c1ccc(OC(F)(F)F)cc1)N[C@@H]1CCCc2ccccc21 | 3% (inactive)

SMILES | MAC1+ percent, differentiation
CC(=O)NCCC(=O)N[C@@H]1CCCc2ccccc21 | 2% (inactive)
O=C(CNC(=O)c1ccc(Cl)c(Cl)c1)N[C@@H]1CCCc2ccccc21 | 6% (inactive)
O=C(NC1CCc2ccccc21)C1CCCN(C(=O)c2ccc(Cl)cc2)C1 (stereo not given) | 4% (inactive)
COc1ccccc1C(C)NC(=O)CCNC(=O)c1ccc(Cl)cc1 (stereo not given) | -1% (inactive)
O=C(CCNC(=O)c1ccccc1)N[C@@H]1CCCc2ccccc21 | 2% (inactive)
O=C(Cc1ccc(Cl)cc1)NCCC(=O)N[C@@H]1CCCc2ccccc21 | 13% (inactive)
Cc1ccc(C(=O)NCCC(=O)N[C@@H]2CCCc3ccccc32)cc1 | 97% (inactive)
O=C(CCCNC(=O)c1ccc(C(F)(F)F)cc1)N[C@@H]1CCCc2ccccc21 | 2% (inactive)
Cc1cccc(C(=O)NCCC(=O)NC2CCCc3ccccc32)c1 (stereo not given) | 4% (inactive)
Cc1ccc(C)c(OCCn2cc(C(=O)O)c3ccccc32)c1 | 2% (inactive)
O=C(O)c1ccccc1OCc1ccccc1Br | 4% (inactive)
O=C(CCCNC(=O)c1ccc(Cl)cc1)N[C@@H]1CCCc2ccccc21 | 5% (inactive)
CC(NC(=O)CCNC(=O)c1ccc(Cl)cc1)c1ccc(F)cc1 (stereo not given) | 6% (inactive)
O=C(CNC(=O)c1ccc(OC(F)(F)F)cc1)N[C@@H]1CCCc2ccccc21 | 3% (inactive)
CC(c1ccccc1)N(C)C(=O)CCNC(=O)c1ccc(Cl)cc1 (stereo not given) | 7% (inactive)
O=C(CNC(=O)c1ccc(Cl)cc1)N[C@@H]1CCCc2ccccc21 | 4% (inactive)

Test system: THP1 MAC1+ differentiation, flow cytometry, 4 days
Assay: as above
Settings: not given

pEC50 | SMILES
5.68 | O=C(CCNC(=O)c1ccc(OC(F)(F)F)cc1)N[C@@H]1CCCc2ccccc21
5.42 | O=C(CCNC(=O)c1ccc(Cl)cc1)NC1CCCc2ccccc21 (stereo not given)
5.29 | COc1ccc(C(=O)NCCC(=O)N[C@@H]2CCCc3ccccc32)cc1
5.37 | O=C(CCNC(=O)c1ccc2c(c1)OC(F)(F)O2)N[C@@H]1CCCc2ccccc21
5.60 | O=C(CCNC(=O)c1ccc(C(F)(F)F)cc1)N[C@@H]1CCCc2ccccc21
5.26 | O=C(O)c1cccnc1Nc1ccc(Cl)cc1
5.51 | O=C(CCNC(=O)c1ccc(Cl)cc1)N[C@@H]1CCCc2ccccc21
5.04 | O=C(CCNC(=O)c1cccc(Cl)c1)N[C@@H]1CCCc2ccccc21
